The source of these data is patent US7071193B2, “7-amino-2-alkylthiopteridin-4-yl-amines for the treatment of chemokine-related diseases” (AstraZeneca AB, priority 2000, dated 2006).

The structures appear in SMILES notation.

In the case of `C[C@H](CO)Nc1nc(SCc2cccc(Cl)c2F)nc2nc(N)cnc12` [Example 13, (2R)-2-[[7-amino-2-[[(3-chloro-2-fluorophenyl)methyl]thio]-4-pteridinyl]amino]-1-propanol], the melting point fell in the range of 224 to 226 °C.

Consider `CC[C@H](CO)Nc1nc(SCc2cccc(F)c2F)nc2nc(N)cnc12` [Example 4, (2R)-2-[[7-Amino-2-[[(2,3-difluorophenyl)methyl]thio]-4-pteridinyl]amino]-1-butanol], for which the melting point lay within 185 to 189 °C.

In turn, `Nc1cnc2c(NC(CO)CO)nc(SCc3cccc(F)c3F)nc2n1` [Example 2, 2-[[7-amino-2-[[(2,3-difluorophenyl)methyl]thio]-4-pteridinyl]amino]-1,3-propanediol] gave a melting point of 251 to 253 °C.

In turn, `CC(CO)(CO)Nc1nc(SCc2cccc(F)c2F)nc2nc(N)cnc12` [Example 5, 2-[[7-Amino-2-[[(2,3-difluorophenyl)methyl]thio]-4-pteridinyl]amino]-2-methyl-1,3-propanediol] displayed a melting point of 220 to 227 °C.
